Source: the kinase profiling compilation of Christmann-Franck et al. (2016)
Blank lines part the entries; values can stand above or below the compound they belong to.

Assays:
Test in all cases: radiometric filter-binding kinase assay
HIPK3 (human) = HIPK3 (human) (UniProt Q9H422)
BRSK2 (human) = BRSK2 (human) (UniProt Q8IWQ3)
ERBB4 (human) = ERBB4 (human) (UniProt Q15303)
MAPK15 (human) = MAPK15 (human) (UniProt Q8TD08)
BRSK1 (human) = BRSK1 (human) (UniProt Q8TDC3)
MAP3K1 (human) = MAP3K1 (human) (UniProt Q13233)
TBK1 (human) = TBK1 (human) (UniProt Q9UHD2)
AURKA (human) = AURKA (human) (UniProt O14965)
Chain of AURKA (human) (O14965 whole entry, looked up): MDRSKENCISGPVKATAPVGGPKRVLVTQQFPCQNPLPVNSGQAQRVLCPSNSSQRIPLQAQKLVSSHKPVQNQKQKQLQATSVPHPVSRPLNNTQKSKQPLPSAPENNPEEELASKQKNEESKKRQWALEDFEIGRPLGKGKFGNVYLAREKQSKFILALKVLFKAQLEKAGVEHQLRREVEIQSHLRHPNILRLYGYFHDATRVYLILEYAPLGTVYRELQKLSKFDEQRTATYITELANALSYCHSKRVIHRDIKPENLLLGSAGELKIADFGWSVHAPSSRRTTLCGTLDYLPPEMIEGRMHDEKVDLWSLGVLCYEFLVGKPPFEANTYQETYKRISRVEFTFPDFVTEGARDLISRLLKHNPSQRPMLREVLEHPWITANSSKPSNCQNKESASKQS

NEK6 (human) = NEK6 (human) (UniProt Q9HC98)
Chain of NEK6 (human) (Q9HC98 whole entry, looked up): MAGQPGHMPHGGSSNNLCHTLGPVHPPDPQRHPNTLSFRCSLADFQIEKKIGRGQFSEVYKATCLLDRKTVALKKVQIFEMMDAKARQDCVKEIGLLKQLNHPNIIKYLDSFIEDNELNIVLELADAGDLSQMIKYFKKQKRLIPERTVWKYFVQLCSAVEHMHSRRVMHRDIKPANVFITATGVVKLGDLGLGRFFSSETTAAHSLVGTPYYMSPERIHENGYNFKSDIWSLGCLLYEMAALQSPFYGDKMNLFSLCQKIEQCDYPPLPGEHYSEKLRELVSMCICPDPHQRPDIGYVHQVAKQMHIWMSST

MAPK1 (human) = MAPK1 (human) (UniProt P28482)
SRPK1 (human) = SRPK1 (human) (UniProt Q96SB4)
GSK3B (human) = GSK3B (human) (UniProt P49841)
MAPK9 (human) = MAPK9 (human) (UniProt P45984)
RPS6KA5 KD1 KD2 (human) = RPS6KA5 KD1 KD2 (human) (UniProt O75582)
[1] = tested on: PAK2 (human), Q13177 [T402E]
CSK (human) = CSK (human) (UniProt P41240)
RPS6KA3 KD1 KD2 (human) = RPS6KA3 KD1 KD2 (human) (UniProt P51812)
[2] = tested on: AKT1 (human), P31749 [S473D]
Chain of AKT1 (human), P31749 [S473D] (P31749 whole entry S473D, looked up): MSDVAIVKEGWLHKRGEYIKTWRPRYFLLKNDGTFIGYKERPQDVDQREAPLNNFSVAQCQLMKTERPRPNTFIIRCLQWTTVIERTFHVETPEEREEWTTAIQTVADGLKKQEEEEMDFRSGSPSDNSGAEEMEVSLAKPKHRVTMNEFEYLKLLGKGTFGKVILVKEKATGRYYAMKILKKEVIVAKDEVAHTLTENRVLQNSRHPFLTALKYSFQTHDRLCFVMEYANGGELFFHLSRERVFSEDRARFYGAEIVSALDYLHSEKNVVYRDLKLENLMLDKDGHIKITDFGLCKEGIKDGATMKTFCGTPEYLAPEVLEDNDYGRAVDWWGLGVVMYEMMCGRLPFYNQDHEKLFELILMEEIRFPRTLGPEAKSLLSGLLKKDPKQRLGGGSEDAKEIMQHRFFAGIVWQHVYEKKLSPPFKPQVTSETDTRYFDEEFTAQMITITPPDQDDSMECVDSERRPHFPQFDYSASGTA

EPHA4 (human) = EPHA4 (human) (UniProt P54764)
[3] = biological target: STK11 CAB39 STRADA (human) (UniProt Q9Y376+Q7RTN6+Q15831)
MAP3K5 (human) = MAP3K5 (human) (UniProt Q99683)
MAP2K6 (human) = MAP2K6 (human) (UniProt P52564)
FGFR1 (human) = FGFR1 (human) (UniProt P11362)
CSNK1D (human) = CSNK1D (human) (UniProt P48730)
BTK (human) = BTK (human) (UniProt Q06187)
MAPK8 (human) = MAPK8 (human) (UniProt P45983)
MAPKAPK3 (human) = MAPKAPK3 (human) (UniProt Q16644)
MKNK2 (human) = MKNK2 (human) (UniProt Q9HBH9)
Chain of MKNK2 (human) (Q9HBH9 whole entry, looked up): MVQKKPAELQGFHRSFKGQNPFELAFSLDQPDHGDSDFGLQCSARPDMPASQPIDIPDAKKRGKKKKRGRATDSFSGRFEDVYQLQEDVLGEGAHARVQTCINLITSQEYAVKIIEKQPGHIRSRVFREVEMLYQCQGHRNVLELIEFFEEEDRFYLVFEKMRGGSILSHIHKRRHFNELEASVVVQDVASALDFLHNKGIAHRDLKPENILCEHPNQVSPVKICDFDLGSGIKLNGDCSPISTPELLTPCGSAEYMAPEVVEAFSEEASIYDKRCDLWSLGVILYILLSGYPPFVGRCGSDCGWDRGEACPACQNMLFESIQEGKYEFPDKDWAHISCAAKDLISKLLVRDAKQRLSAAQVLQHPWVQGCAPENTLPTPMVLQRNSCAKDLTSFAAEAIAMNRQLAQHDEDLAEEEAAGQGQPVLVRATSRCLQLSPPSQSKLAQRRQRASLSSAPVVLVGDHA

IKBKB (human) = IKBKB (human) (UniProt O14920)
Chain of IKBKB (human) (O14920 whole entry, looked up): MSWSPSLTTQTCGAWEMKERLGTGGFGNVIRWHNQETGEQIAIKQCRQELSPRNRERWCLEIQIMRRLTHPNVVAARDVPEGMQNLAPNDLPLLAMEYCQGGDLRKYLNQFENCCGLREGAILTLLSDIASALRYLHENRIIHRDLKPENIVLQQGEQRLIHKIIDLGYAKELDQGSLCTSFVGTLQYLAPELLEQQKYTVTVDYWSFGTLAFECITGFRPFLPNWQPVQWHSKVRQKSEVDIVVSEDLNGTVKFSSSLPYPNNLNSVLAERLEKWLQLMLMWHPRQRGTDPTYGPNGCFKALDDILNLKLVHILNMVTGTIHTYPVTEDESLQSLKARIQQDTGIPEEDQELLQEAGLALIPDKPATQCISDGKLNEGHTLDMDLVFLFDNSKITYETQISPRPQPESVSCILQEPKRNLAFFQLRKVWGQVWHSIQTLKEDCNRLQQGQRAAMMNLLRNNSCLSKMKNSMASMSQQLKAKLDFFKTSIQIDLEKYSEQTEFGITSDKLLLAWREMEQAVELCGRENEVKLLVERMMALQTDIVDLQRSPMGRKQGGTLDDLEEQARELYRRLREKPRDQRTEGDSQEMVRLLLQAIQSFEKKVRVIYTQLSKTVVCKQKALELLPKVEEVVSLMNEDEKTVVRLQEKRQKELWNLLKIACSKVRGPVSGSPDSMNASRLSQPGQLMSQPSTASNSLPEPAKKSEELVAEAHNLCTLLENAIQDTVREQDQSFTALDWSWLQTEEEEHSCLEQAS

MAPK3 (human) = MAPK3 (human) (UniProt P27361)
MAP2K2 (human) = MAP2K2 (human) (UniProt P36507)
PLK1 (human) = PLK1 (human) (UniProt P53350)
HIPK1 (human) = HIPK1 (human) (UniProt Q86Z02)
Chain of HIPK1 (human) (Q86Z02 whole entry, looked up): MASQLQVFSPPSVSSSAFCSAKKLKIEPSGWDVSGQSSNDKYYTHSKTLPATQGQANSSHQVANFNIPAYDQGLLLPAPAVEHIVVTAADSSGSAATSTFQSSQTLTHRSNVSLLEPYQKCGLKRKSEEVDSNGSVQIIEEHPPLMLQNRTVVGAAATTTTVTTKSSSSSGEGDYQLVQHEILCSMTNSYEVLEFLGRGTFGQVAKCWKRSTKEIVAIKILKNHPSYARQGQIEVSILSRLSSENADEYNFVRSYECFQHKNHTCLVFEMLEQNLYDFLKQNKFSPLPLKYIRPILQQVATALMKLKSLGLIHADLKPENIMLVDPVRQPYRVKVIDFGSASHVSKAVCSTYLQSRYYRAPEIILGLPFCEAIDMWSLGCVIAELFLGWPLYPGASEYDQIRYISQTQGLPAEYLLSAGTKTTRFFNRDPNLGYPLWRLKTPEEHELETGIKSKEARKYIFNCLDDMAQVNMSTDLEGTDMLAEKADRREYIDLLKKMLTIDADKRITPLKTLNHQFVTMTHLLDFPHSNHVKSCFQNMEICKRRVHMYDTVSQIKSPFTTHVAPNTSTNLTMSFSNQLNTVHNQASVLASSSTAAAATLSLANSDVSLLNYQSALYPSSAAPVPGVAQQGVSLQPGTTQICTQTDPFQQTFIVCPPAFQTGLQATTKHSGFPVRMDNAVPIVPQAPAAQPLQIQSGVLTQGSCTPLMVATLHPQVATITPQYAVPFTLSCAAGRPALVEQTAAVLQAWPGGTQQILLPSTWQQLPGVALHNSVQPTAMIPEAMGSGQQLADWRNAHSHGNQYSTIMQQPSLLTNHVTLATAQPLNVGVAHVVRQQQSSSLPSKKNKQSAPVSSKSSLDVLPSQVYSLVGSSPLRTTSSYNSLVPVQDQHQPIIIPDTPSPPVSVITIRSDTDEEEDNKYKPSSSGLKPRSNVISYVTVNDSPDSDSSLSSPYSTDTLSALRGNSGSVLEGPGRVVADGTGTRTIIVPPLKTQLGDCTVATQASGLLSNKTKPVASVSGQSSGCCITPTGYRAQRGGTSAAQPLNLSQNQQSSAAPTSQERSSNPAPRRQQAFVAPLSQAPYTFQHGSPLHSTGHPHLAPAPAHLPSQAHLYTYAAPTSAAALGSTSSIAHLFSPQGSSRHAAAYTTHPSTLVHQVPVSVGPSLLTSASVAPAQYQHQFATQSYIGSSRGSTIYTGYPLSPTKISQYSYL

PAK7 (human) = PAK7 (human) (UniProt Q9P286)
EEF2K (human) = EEF2K (human) (UniProt O00418)

Chain of BRSK1 (human) (Q8TDC3 whole entry, looked up): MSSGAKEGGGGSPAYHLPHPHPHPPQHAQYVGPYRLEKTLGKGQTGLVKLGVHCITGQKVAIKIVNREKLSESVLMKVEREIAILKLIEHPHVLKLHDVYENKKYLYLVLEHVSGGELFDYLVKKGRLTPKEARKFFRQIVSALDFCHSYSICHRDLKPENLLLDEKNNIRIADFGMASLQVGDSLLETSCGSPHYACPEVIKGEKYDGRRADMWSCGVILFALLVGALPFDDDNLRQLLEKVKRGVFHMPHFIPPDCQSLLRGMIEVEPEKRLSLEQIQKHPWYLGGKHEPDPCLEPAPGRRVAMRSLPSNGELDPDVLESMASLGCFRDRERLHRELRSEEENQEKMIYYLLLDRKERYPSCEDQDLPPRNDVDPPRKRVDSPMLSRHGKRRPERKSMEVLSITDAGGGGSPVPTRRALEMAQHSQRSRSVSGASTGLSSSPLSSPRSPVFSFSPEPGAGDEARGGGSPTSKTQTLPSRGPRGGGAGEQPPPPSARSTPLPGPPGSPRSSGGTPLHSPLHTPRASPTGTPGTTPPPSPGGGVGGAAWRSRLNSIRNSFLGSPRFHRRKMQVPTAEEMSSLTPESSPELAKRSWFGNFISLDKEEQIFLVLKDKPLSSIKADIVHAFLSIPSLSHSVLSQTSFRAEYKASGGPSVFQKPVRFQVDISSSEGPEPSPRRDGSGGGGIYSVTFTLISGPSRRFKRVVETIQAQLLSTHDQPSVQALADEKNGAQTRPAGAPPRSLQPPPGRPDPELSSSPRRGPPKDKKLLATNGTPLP
Chain of MAPK15 (human) (Q8TD08 whole entry, looked up): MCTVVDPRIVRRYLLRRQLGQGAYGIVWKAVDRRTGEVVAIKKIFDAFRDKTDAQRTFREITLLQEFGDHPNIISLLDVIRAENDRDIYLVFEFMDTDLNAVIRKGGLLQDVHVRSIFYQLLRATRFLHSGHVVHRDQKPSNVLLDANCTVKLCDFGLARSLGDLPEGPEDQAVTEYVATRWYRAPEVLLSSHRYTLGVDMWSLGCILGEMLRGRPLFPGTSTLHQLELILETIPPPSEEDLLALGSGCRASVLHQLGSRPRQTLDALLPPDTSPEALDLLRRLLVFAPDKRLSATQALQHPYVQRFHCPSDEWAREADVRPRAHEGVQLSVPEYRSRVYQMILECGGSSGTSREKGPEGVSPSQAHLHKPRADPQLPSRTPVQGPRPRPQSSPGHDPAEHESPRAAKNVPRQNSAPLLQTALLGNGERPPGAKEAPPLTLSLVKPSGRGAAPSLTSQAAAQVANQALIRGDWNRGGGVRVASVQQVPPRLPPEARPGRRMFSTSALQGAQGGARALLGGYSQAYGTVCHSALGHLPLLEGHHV

residual activity (HIPK3 (human); compound 0.1 µM): 30% | residual activity (HIPK3 (human); compound 1.0 µM): 31% | residual activity (HIPK3 (human); compound 10.0 µM): 17% | residual activity (BRSK2 (human); compound 0.1 µM): 88% | residual activity (BRSK2 (human); compound 1.0 µM): 80% | residual activity (BRSK2 (human); compound 10.0 µM): 40% | residual activity (ERBB4 (human); compound 0.1 µM): 69% | residual activity (ERBB4 (human); compound 1.0 µM): 64% | residual activity (ERBB4 (human); compound 10.0 µM): 51% | residual activity (BRSK1 (human); compound 0.1 µM): 82% | residual activity (BRSK1 (human); compound 1.0 µM): 81% | residual activity (BRSK1 (human); compound 10.0 µM): 41% | residual activity (MAP3K1 (human); compound 0.1 µM): 46% | residual activity (MAP3K1 (human); compound 1.0 µM): 35% | residual activity (MAP3K1 (human); compound 10.0 µM): 5% | residual activity (TBK1 (human); compound 0.1 µM): 87% | residual activity (TBK1 (human); compound 1.0 µM): 78% | residual activity (TBK1 (human); compound 10.0 µM): 93% | residual activity (AURKA (human); compound 0.1 µM): 3% | residual activity (AURKA (human); compound 1.0 µM): 3% | residual activity (AURKA (human); compound 10.0 µM): 0% | residual activity (NEK6 (human); compound 0.1 µM): 103% | residual activity (NEK6 (human); compound 1.0 µM): 101% | residual activity (NEK6 (human); compound 10.0 µM): 85% | residual activity (MAPK1 (human); compound 0.1 µM): 99% | residual activity (MAPK1 (human); compound 1.0 µM): 103% | residual activity (MAPK1 (human); compound 10.0 µM): 85% | residual activity (SRPK1 (human); compound 0.1 µM): 71% | residual activity (SRPK1 (human); compound 1.0 µM): 59% | residual activity (SRPK1 (human); compound 10.0 µM): 11% | residual activity (GSK3B (human); compound 0.1 µM): 46% | residual activity (GSK3B (human); compound 1.0 µM): 41% | residual activity (GSK3B (human); compound 10.0 µM): 37% | residual activity (MAPK9 (human); compound 0.1 µM): 98% | residual activity (MAPK9 (human); compound 1.0 µM): 94% | residual activity (MAPK9 (human); compound 10.0 µM): 54% | residual activity (RPS6KA5 KD1 KD2 (human); compound 0.1 µM): 59% | residual activity (RPS6KA5 KD1 KD2 (human); compound 1.0 µM): 51% | residual activity (RPS6KA5 KD1 KD2 (human); compound 10.0 µM): 22% | residual activity ([1]; compound 0.1 µM): 44% | residual activity ([1]; compound 1.0 µM): 44% | residual activity ([1]; compound 10.0 µM): 16% | residual activity (CSK (human); compound 0.1 µM): 103% | residual activity (CSK (human); compound 1.0 µM): 88% | residual activity (CSK (human); compound 10.0 µM): 9% | residual activity (RPS6KA3 KD1 KD2 (human); compound 0.1 µM): 67% | residual activity (RPS6KA3 KD1 KD2 (human); compound 1.0 µM): 64% | residual activity (RPS6KA3 KD1 KD2 (human); compound 10.0 µM): 18% | residual activity ([2]; compound 0.1 µM): 105% | residual activity ([2]; compound 1.0 µM): 86% | residual activity ([2]; compound 10.0 µM): 53% | residual activity (EPHA4 (human); compound 0.1 µM): 22% | residual activity (EPHA4 (human); compound 1.0 µM): 29% | residual activity (EPHA4 (human); compound 10.0 µM): 0% | residual activity ([3]; compound 0.1 µM): 64% | residual activity ([3]; compound 1.0 µM): 62% | residual activity ([3]; compound 10.0 µM): 8% | residual activity (MAP3K5 (human); compound 0.1 µM): 106% | residual activity (MAP3K5 (human); compound 1.0 µM): 101% | residual activity (MAP2K6 (human); compound 0.1 µM): 94% | residual activity (MAP2K6 (human); compound 1.0 µM): 95% | residual activity (FGFR1 (human); compound 0.1 µM): 47% | residual activity (FGFR1 (human); compound 1.0 µM): 43% | residual activity (FGFR1 (human); compound 10.0 µM): 11% | residual activity (CSNK1D (human); compound 0.1 µM): 99% | residual activity (CSNK1D (human); compound 1.0 µM): 87% | residual activity (CSNK1D (human); compound 10.0 µM): 68% | residual activity (BTK (human); compound 0.1 µM): 96% | residual activity (BTK (human); compound 1.0 µM): 53% | residual activity (BTK (human); compound 10.0 µM): 8% | residual activity (MAPK8 (human); compound 0.1 µM): 98% | residual activity (MAPK8 (human); compound 1.0 µM): 99% | residual activity (MAPK8 (human); compound 10.0 µM): 53% | residual activity (MAPKAPK3 (human); compound 0.1 µM): 91% | residual activity (MAPKAPK3 (human); compound 1.0 µM): 77% | residual activity (MAPKAPK3 (human); compound 10.0 µM): 85% | residual activity (MKNK2 (human); compound 0.1 µM): 120% | residual activity (MKNK2 (human); compound 1.0 µM): 92% | residual activity (MKNK2 (human); compound 10.0 µM): 73% | residual activity (IKBKB (human); compound 0.1 µM): 107% | residual activity (IKBKB (human); compound 1.0 µM): 92% | residual activity (IKBKB (human); compound 10.0 µM): 84% | residual activity (MAPK3 (human); compound 0.1 µM): 103% | residual activity (MAPK3 (human); compound 1.0 µM): 78% | residual activity (MAPK3 (human); compound 10.0 µM): 99% | residual activity (MAP2K2 (human); compound 0.1 µM): 86% | residual activity (MAP2K2 (human); compound 1.0 µM): 77% | residual activity (PLK1 (human); compound 0.1 µM): 97% | residual activity (PLK1 (human); compound 1.0 µM): 85% | residual activity (PLK1 (human); compound 10.0 µM): 114% | residual activity (HIPK1 (human); compound 0.1 µM): 45% | residual activity (HIPK1 (human); compound 1.0 µM): 42% | residual activity (HIPK1 (human); compound 10.0 µM): 5% | residual activity (PAK7 (human); compound 0.1 µM): 62% | residual activity (PAK7 (human); compound 1.0 µM): 58% | residual activity (PAK7 (human); compound 10.0 µM): 22% | residual activity (EEF2K (human); compound 0.1 µM): 113% | residual activity (EEF2K (human); compound 1.0 µM): 96% | residual activity (EEF2K (human); compound 10.0 µM): 92%
SMILES: Cc1ccc(Sc2cnc(Nc3cccc(Br)n3)s2)cc1C(=O)N1CCN(C(=O)CN)CC1
residual activity (MAPK15 (human); compound 0.1 µM): 1% | residual activity (MAPK15 (human); compound 1.0 µM): 1% | residual activity (MAPK15 (human); compound 10.0 µM): 1%

residual activity (HIPK3 (human); compound 0.1 µM): 113% | residual activity (BRSK2 (human); compound 0.1 µM): 82% | residual activity (BRSK2 (human); compound 1.0 µM): 76% | residual activity (ERBB4 (human); compound 1.0 µM): 106% | residual activity (BRSK1 (human); compound 0.1 µM): 94% | residual activity (BRSK1 (human); compound 1.0 µM): 86% | residual activity (MAP3K1 (human); compound 0.1 µM): 85% | residual activity (MAP3K1 (human); compound 1.0 µM): 100% | residual activity (TBK1 (human); compound 0.1 µM): 77% | residual activity (TBK1 (human); compound 1.0 µM): 79% | residual activity (AURKA (human); compound 0.1 µM): 107% | residual activity (AURKA (human); compound 1.0 µM): 97% | residual activity (NEK6 (human); compound 0.1 µM): 88% | residual activity (NEK6 (human); compound 1.0 µM): 96% | residual activity (MAPK1 (human); compound 0.1 µM): 99% | residual activity (MAPK1 (human); compound 1.0 µM): 114% | residual activity (SRPK1 (human); compound 0.1 µM): 105% | residual activity (SRPK1 (human); compound 1.0 µM): 104% | residual activity (GSK3B (human); compound 0.1 µM): 88% | residual activity (GSK3B (human); compound 1.0 µM): 56% | residual activity (MAPK9 (human); compound 0.1 µM): 81% | residual activity (MAPK9 (human); compound 1.0 µM): 19% | residual activity (RPS6KA5 KD1 KD2 (human); compound 0.1 µM): 88% | residual activity (RPS6KA5 KD1 KD2 (human); compound 1.0 µM): 91% | residual activity ([1]; compound 0.1 µM): 102% | residual activity ([1]; compound 1.0 µM): 93% | residual activity (CSK (human); compound 1.0 µM): 103% | residual activity (RPS6KA3 KD1 KD2 (human); compound 0.1 µM): 80% | residual activity (RPS6KA3 KD1 KD2 (human); compound 1.0 µM): 80% | residual activity ([2]; compound 0.1 µM): 92% | residual activity ([2]; compound 1.0 µM): 104% | residual activity (EPHA4 (human); compound 0.1 µM): 92% | residual activity (EPHA4 (human); compound 1.0 µM): 105% | residual activity ([3]; compound 0.1 µM): 78% | residual activity ([3]; compound 1.0 µM): 91% | residual activity (MAP3K5 (human); compound 0.1 µM): 96% | residual activity (MAP3K5 (human); compound 1.0 µM): 100% | residual activity (MAP2K6 (human); compound 0.1 µM): 97% | residual activity (MAP2K6 (human); compound 1.0 µM): 91% | residual activity (FGFR1 (human); compound 0.1 µM): 94% | residual activity (FGFR1 (human); compound 1.0 µM): 95% | residual activity (CSNK1D (human); compound 0.1 µM): 63% | residual activity (CSNK1D (human); compound 1.0 µM): 33% | residual activity (BTK (human); compound 1.0 µM): 85% | residual activity (MAPK8 (human); compound 0.1 µM): 9% | residual activity (MAPK8 (human); compound 1.0 µM): 4% | residual activity (MAPKAPK3 (human); compound 0.1 µM): 104% | residual activity (MAPKAPK3 (human); compound 1.0 µM): 101% | residual activity (MKNK2 (human); compound 0.1 µM): 92% | residual activity (IKBKB (human); compound 0.1 µM): 76% | residual activity (IKBKB (human); compound 1.0 µM): 63% | residual activity (MAPK3 (human); compound 0.1 µM): 110% | residual activity (MAPK3 (human); compound 1.0 µM): 109% | residual activity (MAP2K2 (human); compound 0.1 µM): 87% | residual activity (MAP2K2 (human); compound 1.0 µM): 102% | residual activity (PLK1 (human); compound 0.1 µM): 91% | residual activity (PLK1 (human); compound 1.0 µM): 106% | residual activity (HIPK1 (human); compound 0.1 µM): 86% | residual activity (HIPK1 (human); compound 1.0 µM): 78% | residual activity (PAK7 (human); compound 0.1 µM): 89% | residual activity (PAK7 (human); compound 1.0 µM): 91% | residual activity (EEF2K (human); compound 0.1 µM): 97% | residual activity (EEF2K (human); compound 1.0 µM): 101%
SMILES: CN(C)C/C=C/C(=O)Nc1cccc(C(=O)Nc2ccc(Nc3nccc(-c4cccnc4)n3)cc2)c1
residual activity (MAPK15 (human); compound 0.1 µM): 46% | residual activity (MAPK15 (human); compound 1.0 µM): 20%
